How the values were obtained:
AKT1 E17K = molecular target: T1, AKT1 E17K (Homo sapiens, UniProt P31749, E17K); test: AKT1 E17K kinase assay (TR-FRET, Lance); assay type: biochemical; conditions: full-length human recombinant AKT1 E17K activated by PDPK1; Ulight-CREBtide substrate; either 50 μM ATP or 2 mM ATP
T1 construct: Purified human recombinant kinase full-length AKT1 E17K was expressed in insect cells; made in house; host or cells: insect cells
Protocol: AKT1 E17K kinase assay: Inhibitory effects of compounds on AKT1 E17K were undertaken in a 10-pt dose response kinase activity assay measuring phospho-peptide product formation based on TR-FRET signal as described in the following paragraph.
(§1) Purified human recombinant kinase full-length AKT1 E17K was expressed in insect cells and activated in vitro by PDPK1. Ulight™-CREBtide (PerkinElmer, catalog number TRF0107) was used as the peptide substrate. The reaction buffer consisted of 50 mM HEPES pH 7.5, 10 mM MgCl2, 0.01% Triton X-100, 0.01% BSA, 2 mM DTT, 0.6 nM AKT1 E17K, 50 nM Ulight™-CREBtide and either 50 μM ATP or 2 mM ATP. The compound solution was prepared as 10 mM DMSO stock. For the assay, a 1:3 serial dilution 10-pt dose response of test compounds, in duplicate, for each concentration were dispensed into a 384-well plate (Corning, catalog number 4513). Final DMSO concentration in the assay was 1%. The enzyme mixture (5 μL, 1.2 nM) were added and the mixture was incubated for 15 min at RT prior to the start of the kinase reaction by the addition of 5 μL substrate mixture (100 nM Ulight™-CREBtide). The reaction was stopped after 60 min of incubation at RT by the addition of 10 μL of Detection Mix (PerkinElmer, #CR97-100) consisting of Europium-anti-phospho-CREB (Ser133) (Perkin Elmer, catalog numberTRF0200). Incubation with the detection mix for a further 60 min allowed binding of antibody to the phospho-Ulight™ CREBtide. The fluorescence emissions at 620 nm and 665 nm after excitation at 350 nm was measured using Envision reader. The ratio of the emissions at 665 nm and at 620 nm provided the measure for the amount of phosphorylated CREBtide product of AKT1 E17K kinase activity. To determine the IC50 values, the data was normalized (enzyme reaction without inhibitor=0% inhibition, all other assay components but no enzyme=100% inhibition) and IC50 values were calculated by a 4-parameter fit using an in-house developed protocol.

wildtype AKT1 = molecular target: T2, wildtype AKT1 (Homo sapiens, UniProt P31749); test: AKT1 kinase assay, wildtype (TR-FRET, Lance); assay type: biochemical; conditions: full-length human recombinant wildtype AKT1 activated by PDPK1; Ulight-CREBtide substrate; either 50 μM ATP or 2 mM ATP
T2 construct: Purified human recombinant kinase full-length wildtype AKT1 was expressed in insect cells; made in house; host or cells: insect cells
T2 sequence (P31749 whole entry): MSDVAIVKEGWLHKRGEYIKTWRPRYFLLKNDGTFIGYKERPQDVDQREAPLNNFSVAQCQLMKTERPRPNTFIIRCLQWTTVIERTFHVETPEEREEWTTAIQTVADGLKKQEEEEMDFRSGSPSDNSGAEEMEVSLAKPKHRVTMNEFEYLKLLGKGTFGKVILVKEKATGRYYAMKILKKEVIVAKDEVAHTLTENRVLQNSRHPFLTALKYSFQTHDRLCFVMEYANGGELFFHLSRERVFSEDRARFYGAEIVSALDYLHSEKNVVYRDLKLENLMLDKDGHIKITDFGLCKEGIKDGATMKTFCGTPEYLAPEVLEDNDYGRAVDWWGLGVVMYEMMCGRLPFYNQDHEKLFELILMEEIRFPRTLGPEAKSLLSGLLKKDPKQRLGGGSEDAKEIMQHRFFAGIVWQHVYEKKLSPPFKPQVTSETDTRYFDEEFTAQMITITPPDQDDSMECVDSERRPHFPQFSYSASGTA
Protocol: AKT1 kinase assay: Inhibitory effects of compounds on wildtype AKT1 were undertaken in a 10-pt dose response kinase activity assay measuring phospho-peptide product formation based on TR-FRET signal as described in the following paragraph.
as §1, with “full-length wildtype” for “full-length”, “AKT1” for “AKT1 E17K”, “nM AKT1,” for “nM AKT1 E17K,”, “Mix (PerkinElmer.” for “Mix (PerkinElmer,”

T1 sequence (P31749 whole entry E17K): as the sequence (P31749 whole entry) above, with E17K counted along it

IC50 (AKT1 E17K) [µM] | IC50 (wildtype AKT1) [µM] | Compound
≥ 0.5 | < 0.5 | Nc1ncccc1-c1nc2ccc(-c3ccccc3)nc2n1-c1ccc(CNC(=O)c2ccc(-n3nc(-c4ccccc4)cc3O)cc2)cc1 [Compound I-8, N-(4-(2-(2-aminopyridin-3-yl)-5-phenyl-3H-imidazo[4,5-b]pyridin-3-yl)benzyl)-4-(5-hydroxy-3-phenyl-1H-pyrazol-1-yl)benzamide]
≥ 0.5 | < 0.5 | Cc1nc(NC(=O)[C@H]2CC[C@H](c3nsc(=O)[nH]3)CC2)ccc1-n1c(-c2cccnc2N)nc2ccc(-c3ccccc3)nc21 [Compound I-38, (1r,4r)-N-(5-(2-(2-aminopyridin-3-yl)-5-phenyl-3H-imidazo[4,5-b]pyridin-3-yl)-6-methylpyridin-2-yl)-4-(5-oxo-4,5-dihydro-1,2,4-thiadiazol-3-yl)cyclohexane-1-carboxamide]
0.05 to 0.2 | < 0.5 | Cc1cc(O)n(-c2ccc(C(=O)NCc3ccc(-n4c(-c5cccnc5N)nc5ccc(-c6ccccc6)nc54)cc3)cc2F)n1 [Compound I-5, N-[[4-[2-(2-amino-3-pyridyl)-5-phenyl-imidazo[4,5-b]pyridin-3-yl]phenyl]methyl]-3-fluoro-4-(5-hydroxy-3-methyl-pyrazol-1-yl)benzamide]
0.2 to 0.5 | < 0.5 | COc1cc(C)nn1-c1ccc(C(=O)NCc2ccc(-n3c(-c4cccnc4N)nc4ccc(-c5ccccc5)nc43)cc2)cc1 [Compound I-2, N-(4-(2-(2-aminopyridin-3-yl)-5-phenyl-3H-imidazo[4,5-b]pyridin-3-yl)benzyl)-4-(5-methoxy-3-methyl-1H-pyrazol-1-yl)benzamide]
0.2 to 0.5 | < 0.5 | Cc1nc(NC(=O)[C@H]2CC[C@H](c3nn[nH]n3)CC2)ccc1-n1c(-c2cccnc2N)nc2ccc(-c3ccccc3)nc21 [Compound I-39, (1r,4r)-N-(5-(2-(2-aminopyridin-3-yl)-5-phenyl-3H-imidazo[4,5-b]pyridin-3-yl)-6-methylpyridin-2-yl)-4-(2H-tetrazol-5-yl)cyclohexane-1-carboxamide]
